Measured values: PMC6792352, “Limited Chemical Structural Diversity Found to Modulate Thyroid Hormone Receptor in the Tox21 Chemical Library” (Environmental Health Perspectives, 2019)
Structures can show the parent of a compound that is named as a salt.

Experiment: in vitro
Details: rat, gh3-tre-luc cells, AC50 (uM) modified / 1000

Row | SMILES | CC50 at 24 h [µM]
1 | c1cncc([C@@H]2CCCCN2)c1 [L-3-(2'-Piperidyl)pyridine] | > 90
2 | O=C(N=NC(=O)OCc1ccccc1)OCc1ccccc1 [Dibenzyl diazene-1,2-dicarboxylate] | > 90
3 | CN1CCC(=C2c3ccccc3C=Cc3ccccc32)CC1 [Cyproheptadine] | 12.2
4 | c1ccc(B(c2ccccc2)c2ccccc2)cc1 [Triphenylborane] | > 90
5 | COP(=S)(OC)Oc1ccc([N+](=O)[O-])c(C)c1 [Fenitrothion] | > 90
6 | CCC(CC)C(=O)O [2-Ethylbutyric acid] | > 90
7 | O=C(CCCN1CCN(c2ccc(F)cc2)CC1)NC1c2ccccc2CSc2ccccc21 (centres unmarked) [Monatepil] | 11.9
8 | O=C(/C=C/c1ccc(O)c(O)c1)O[C@@H]1C[C@](O)(C(=O)O)C[C@@H](O)[C@H]1O [Chlorogenic acid] | > 90
9 | CCC(C)COC(=O)CC(C)C (centres unmarked) [2-Methylbutyl isovalerate] | > 90
10 | C#Cc1cccc(Nc2ncnc3cc(OCCOC)c(OCCOC)cc23)c1 [Erlotinib] | > 50
11 | Cc1c(N)nc([C@H](CC(N)=O)NC[C@H](N)C(N)=O)nc1C(=O)N[C@H](C(=O)N[C@H](C)[C@@H](O)[C@H](C)C(=O)N[C@H](C(=O)NCCc1nc(-c2nc(C(=O)NCCCN[C@@H](C)c3ccccc3)cs2)cs1)[C@@H](C)O)[C@@H](O[C@@H]1O[C@@H](CO)[C@@H](O)[C@H](O)[C@@H]1O[C@H]1O[C@H](CO)[C@@H](O)[C@H](OC(N)=O)[C@@H]1O)c1c[nH]cn1 [Peplomycin sulfate] | 2.77
12 | C[C@H](/C=C/[C@H](C)C(C)(C)O)[C@H]1CC[C@H]2/C(=C/C=C3C[C@@H](O)C[C@H](O)C3)CCC[C@]12C [Paricalcitol] | 27
13 | C=CC(=O)OCC1CC2CC1C1CCC(COC(=O)C=C)C21 (centres unmarked) [Octahydro-1H-4,7-methanoindene-1,5-diyldimethanediyl bisprop-2-enoate] | 75.1
14 | CCCCCCCCCCCCCCCO [1-Pentadecanol] | > 90
15 | C#CC(C)N(C)C(=O)Nc1ccc(Cl)cc1 (centres unmarked) [Buturon] | > 90
16 | CCCN(CC)CC1COC2(CCC(C(C)(C)C)CC2)O1 (centres unmarked) [Spiroxamine] | > 90
17 | CCN(O)CC [N,N-Diethylhydroxylamine] | > 90
18 | Cc1ncc([N+](=O)[O-])n1CC(C)O (centres unmarked) [Secnidazole] | > 50
19 | N[C@H](C(=O)O)[C@H](O)c1ccc(O)c(O)c1 [Droxidopa] | > 50
20 | Nc1c(CC(=O)O)cccc1C(=O)c1ccccc1 [Amfenac sodium] | > 50
21 | Cc1c[nH]c2ccccc12 [3-Methylindole] | > 50
22 | CCCCCCCCCCCCCCCCCC#N [Octadecanenitrile] | > 90
23 | O=C1CC(=O)NC(=O)N1 [Barbituric acid] | > 90
24 | CCCCCCCCCOC(=O)c1ccc(O)cc1 [Nonylparaben] | 21.8
25 | C[C@H]1C[C@H]2[C@@H]3CCC4=CC(=O)C=C[C@]4(C)[C@@]3(F)[C@@H](O)C[C@]2(C)[C@@]1(O)C(=O)CCl [Clobetasol] | > 50
26 | Cc1ccc(-c2nc3ccc(C)cn3c2CC(=O)N(C)C)cc1 [Zolpidem] | > 50
27 | Nc1nc2c(ncn2CCC(CO)CO)c(=O)[nH]1 [Penciclovir] | > 50

Row | SMILES | CC50 at 24 h [µM]
28 | O=C(O)c1cc(=O)c2c(OCC(O)COc3cccc4oc(C(=O)O)cc(=O)c34)cccc2o1 [Cromolyn sodium] | > 50
29 | O=S1(=O)OC(c2ccc(O)cc2)(c2ccc(O)cc2)c2ccccc21 [Phenol Red sodium salt] | 46.9
30 | Clc1ccc2[nH]nnc2c1 [5-Chlorobenzotriazole] | > 90
31 | CN(C)C(=O)Nc1ccc(Oc2ccc(Cl)cc2)cc1 [Chloroxuron] | > 90
32 | Clc1ccc(C(Cl)(Cl)Cl)cc1 [4-Chlorobenzotrichloride] | > 90
33 | CC(C)(O/N=C(\C(=O)N[C@@H]1C(=O)N2C(C(=O)[O-])=C(C[n+]3ccccc3)CS[C@H]12)c1csc(N)n1)C(=O)O [Ceftazidime pentahydrate] | > 20
34 | COc1nn(CSP(=S)(OC)OC)c(=O)s1 [Methidathion] | > 90
35 | CCOC(C)(C)C [Ethyl T-butyl ether] | > 90
36 | Cc1ccc(NC(=O)c2ccc(CN3CCN(C)CC3)cc2)cc1Nc1nccc(-c2cccnc2)n1 [Imatinib mesylate] | 18.5
37 | N[C@@H](CSCC(=O)O)C(=O)O [Carbocysteine] | > 50
38 | CNC(=O)ON=C(C)C(C)S(C)(=O)=O (centres unmarked) [Butoxycarboxim] | > 900
39 | CCCCCCOCCO [2-Hexyloxyethanol] | > 90
40 | CC(=O)Nc1cccc(N)c1 [3-Aminoacetanilide] | > 90
41 | CCCCOCCOCCOC(=O)CCCCC(=O)OCCOCCOCCCC [Bis[2-(2-butoxyethoxy)ethyl] adipate] | > 90
42 | NC(=O)C[C@@H](N)C(=O)O [D-Asparagine hydrate] | > 50
43 | NNC(=O)OCc1ccccc1 [Hydrazinecarboxylic acid, phenylmethyl ester] | > 90
44 | CC(C)(C)c1cc(CO)cc(C(C)(C)C)c1O | 82.2
45 | CN(C)CCOCCN(C)C [Bis[2-(dimethylamino)ethyl]ether] | > 90
46 | CNC(=O)O/N=C/C(C)(C)SC [Aldicarb] | > 90
47 | CNCCCC1c2ccccc2C=Cc2ccccc21 [Protriptyline hydrochloride] | 7.1
48 | CC(CN(C)C)CN1c2ccccc2Sc2ccc(C(F)(F)F)cc21 (centres unmarked) [Trifluomeprazine 2-butenedioate] | 9.4
49 | Brc1ccc(Oc2ccccc2)cc1 [p-Bromodiphenyl ether] | > 90
50 | CCOC(=O)C(C)(C)Oc1ccc(Cl)cc1 [Clofibrate] | > 90
51 | N#C/N=C1\SCCN1Cc1ccc(Cl)nc1 [Thiacloprid] | > 90
52 | CCCCCCCCCCCCC [Tridecane] | > 90
53 | O=C1C(=O)c2ncccc2-c2cccnc21 [Phanquinone] | 1.78
54 | O=C1CN=C(c2ccccc2)c2cc([N+](=O)[O-])ccc2N1 [Nitrazepam] | > 50

Row | SMILES | CC50 at 24 h [µM]
55 | Clc1ccc(Cn2c(CN3CCCC3)nc3ccccc32)cc1 [Clemizole hydrochloride] | > 20
56 | CC(=O)O[C@H]1CC[C@@]2(C)C(=CC[C@@H]3[C@@H]2CC[C@]2(C)C(c4cccnc4)=CC[C@@H]32)C1 [Abiraterone acetate] | > 50
57 | CC(C)CCOC(=O)CC(C)C [3-Methylbutyl 3-methylbutanoate] | > 90
58 | CCOC(C)OCC [Acetal] | > 90
59 | CCN(CCC#N)c1ccc(N=Nc2c(Cl)cc([N+](=O)[O-])cc2Cl)cc1 [C.I. Disperse Orange 37] | 33.4
60 | CC(=O)c1ccccc1 [Acetophenone] | > 90
61 | C[n+]1ccccc1/C=N/O [Pralidoxime chloride] | > 20
62 | CCOc1nc2cccc(C(=O)OC(C)OC(=O)OC3CCCCC3)c2n1Cc1ccc(-c2ccccc2-c2nnn[nH]2)cc1 (centres unmarked) [Candesartan cilexetil] | 31.1
63 | O=C1c2c(O)ccc(O)c2C(=O)c2c(NCCNCCO)ccc(NCCNCCO)c21 [Mitoxantrone dihydrochloride] | 0.988
64 | CN1C[C@@H]2C[C@H]1CN2c1cc2c(cc1F)c(=O)c(C(=O)O)cn2C1CC1 [Danofloxacin] | > 50
65 | O=CC1CC=CCC1 (centres unmarked) [3-Cyclohexene-1-carboxaldehyde] | > 90
66 | CC(C)(Cc1c[nH]c2ccccc12)NCC(O)COc1ccccc1C#N (centres unmarked) [Bucindolol] | 20.5
67 | CCCCOC(=O)CCC(C)=O [Butyl 4-oxopentanoate] | > 90
68 | CC(=C(CCO)SSCC1CCCO1)N(C=O)Cc1cnc(C)nc1N (stereo in doubt) [Fursultiamine hydrochloride] | > 50
69 | Cc1cc(C)c(C)c(C)c1 [1,2,3,5-Tetramethylbenzene] | > 90
70 | CCCCCCCCO [1-Octanol] | > 90
71 | Cc1c(C)c2c(c(C)c1O)CC[C@@](C)(CCC[C@H](C)CCC[C@H](C)CCCC(C)C)O2 [alpha-Vitamin E] | > 50
72 | CC(CC(=O)O)CC(C)(C)C (centres unmarked) [3,5,5-Trimethylhexanoic acid] | > 90
73 | C=CCCCCCCCCCC [1-Dodecene] | > 90
74 | CC(=O)OCC[N+](C)(C)C [Acetylcholine chloride] | > 50
75 | CCC(O)C(C)(C)C (centres unmarked) [2,2-Dimethyl-3-pentanol] | > 90
76 | CCc1ccc(C(c2ccc(CC)cc2)C(Cl)Cl)cc1 [p,p'-Ethyl-DDD] | 82.4
77 | Cc1c(OCC(F)(F)F)ccnc1C[S+]([O-])c1nc2ccccc2[nH]1 (centres unmarked) [Lansoprazole] | > 90
78 | O=C1c2ccccc2C(=O)c2ccccc21 [Anthraquinone] | > 50
79 | COc1cccc(C(=O)NN(C(=O)c2cc(C)cc(C)c2)C(C)(C)C)c1C [Methoxyfenozide] | > 90
80 | O=C1CCCC1 [Cyclopentanone] | > 90

Same assay, conditions: rat, gh3-tre-luc cells, AC50 (uM) modified / 1000, Tox21_110001=Tox21_111708; viability, 1 nM T3 present, 24 h

Row | SMILES | CC50 at 24 h [µM]
81 | OC[C@@H](O)[C@H]1O[C@@H]2O[C@H](C(Cl)(Cl)Cl)O[C@@H]2[C@H]1O [Chloralose] | > 50

Same assay, conditions: rat, gh3-tre-luc cells, AC50 (uM) modified / 1000, Tox21_110001=Tox21_200290; viability, 1 nM T3 present, 24 h

Row | SMILES | CC50 at 24 h [µM]
82 | ClC1=C(Cl)C2(Cl)C3C(Cl)C(Cl)CC3C1(Cl)C2(Cl)Cl (centres unmarked) [Technical chlordane] | 27.8

Same assay, conditions: rat, gh3-tre-luc cells, AC50 (uM) modified / 1000, Tox21_110001=Tox21_200660; viability, 1 nM T3 present, 24 h

Row | SMILES | CC50 at 24 h [µM]
83 | C[N+](C)(C)C [Tetramethylammonium chloride] | > 90

Same assay, conditions: rat, gh3-tre-luc cells, AC50 (uM) modified / 1000, Tox21_110001=Tox21_200675; viability, 1 nM T3 present, 24 h

Row | SMILES | CC50 at 24 h [µM]
84 | Oc1ccc(Cl)c(Cl)c1 [3,4-Dichlorophenol] | > 90

Same assay, conditions: rat, gh3-tre-luc cells, AC50 (uM) modified / 1000, Tox21_110001=Tox21_201447; viability, 1 nM T3 present, 24 h

Row | SMILES | CC50 at 24 h [µM]
85 | OC[C@@H](O)[C@H]1O[C@@H]2O[C@H](C(Cl)(Cl)Cl)O[C@@H]2[C@H]1O [Chloralose] | > 90

Same assay, conditions: rat, gh3-tre-luc cells, AC50 (uM) modified / 1000, Tox21_110001=Tox21_302624; viability, 1 nM T3 present, 24 h

Row | SMILES | CC50 at 24 h [µM]
86 | CC1CCC(=O)O1 (centres unmarked) [4-Pentanolide] | > 90
